Reference: US20250115576A1, “THERAPEUTIC COMPOUNDS AND METHODS OF USE THEREOF” (Genentech, Inc., priority 2018, published 2025)
Counter-ions that a name gives are not always drawn.

The compounds below were run against hNav1.7 (Homo sapiens (Human), UniProt Q15858) (assay: Patch voltage clamp electrophysiology (EP), Syncropatch 384PE, CHO cells stably expressing Nav1.7). Details: holding potential −50 mV, 7.5 min compound incubation, read-out: EP_SP hNav1.7 EVO IC50.
Assay type: cell-based
From the text: Example 64c. Electrophysiological Assay (EP) (In Vitro Assay)
Patch voltage clamp electrophysiology allows for the direct measurement and quantification of block of voltage-gated sodium channels (NaV's), and allows the determination of the time- and voltage-dependence of block which has been interpreted as differential binding to the resting, open, and inactivated states of the sodium channel (Hille, B., Journal of General Physiology (1977), 69: 497-515).
The following voltage clamp electrophysiology studies are performed on representative compounds using cells heterologously expressing Nav1.7 or Nav1.5 channels. cDNAs for Nav1.7 (NM_002977) and Nav1.5 (AC137587) are stably expressed in Chinese Hamstr Ovary (CHO) cells and CHL (Chinese Hamster Lung) cells respectively. Sodium currents are measured in the whole-cell configuration using Syncropatch 384PE (Nanlon Technologies, Germany). 1NPC®-384 chips with custom medium resistance and single hole mode are used. Internal solution consists of (in mM): […], 10 CsCl, 20 EGTA, and 10 Hepes (pH adjusted to 7.2); and external solution contains (in mM): 60 NMDG, 80 NaCl, 4 KCl, 1 MgCl2, 2 CaCl2, 2 D-Glucose monohydrate, 10 Hepes (pH adjusted to 7.4 with NaOH).
After system flushing, testing compounds are dissolved in external solution containing 0.1% Pluronic F-127. The chip is moved into the measuring head and the instrument primes the chip with external and internal solutions. 10 μl cells are added to the chip from a cell hotel, and a negative pressure of −50 mBar is applied to form a seal. Following treatment with seal enhancer solution and wash-off with external solution, negative pressure of −250 mbar is applied for 1 second to achieve the whole-cell configuration, followed by three washing steps in external solution. 20 μl of compounds is added to 40 μl in each well (1:3 dilution of compounds), and after mixing, 20 μl is removed so the volume is retained at 40 ul. After approximately 13 minutes recordings, 20 μl/well of 2 uM TTX, or 333 uM Tetracaine (for […]) is added to achieve full block.
For voltage protocol, an holding potential of −50 mV is applied during the whole experiment. A depolarizing step is applied to −10 mV for 10 ms, followed by a hyperpolarization step to −150 mV for 20 ms to allow channel recovery from inactivation. A second depolarizing step is applied from −150 mV to −10 mV for 10 ms, where currents are measured to derive blocking effects of compounds. Inhibition is determined based on 7.5 min of compound incubation.

hNav1.7, sequence (Q15858 other isoform, or with tags, fused parts or gaps): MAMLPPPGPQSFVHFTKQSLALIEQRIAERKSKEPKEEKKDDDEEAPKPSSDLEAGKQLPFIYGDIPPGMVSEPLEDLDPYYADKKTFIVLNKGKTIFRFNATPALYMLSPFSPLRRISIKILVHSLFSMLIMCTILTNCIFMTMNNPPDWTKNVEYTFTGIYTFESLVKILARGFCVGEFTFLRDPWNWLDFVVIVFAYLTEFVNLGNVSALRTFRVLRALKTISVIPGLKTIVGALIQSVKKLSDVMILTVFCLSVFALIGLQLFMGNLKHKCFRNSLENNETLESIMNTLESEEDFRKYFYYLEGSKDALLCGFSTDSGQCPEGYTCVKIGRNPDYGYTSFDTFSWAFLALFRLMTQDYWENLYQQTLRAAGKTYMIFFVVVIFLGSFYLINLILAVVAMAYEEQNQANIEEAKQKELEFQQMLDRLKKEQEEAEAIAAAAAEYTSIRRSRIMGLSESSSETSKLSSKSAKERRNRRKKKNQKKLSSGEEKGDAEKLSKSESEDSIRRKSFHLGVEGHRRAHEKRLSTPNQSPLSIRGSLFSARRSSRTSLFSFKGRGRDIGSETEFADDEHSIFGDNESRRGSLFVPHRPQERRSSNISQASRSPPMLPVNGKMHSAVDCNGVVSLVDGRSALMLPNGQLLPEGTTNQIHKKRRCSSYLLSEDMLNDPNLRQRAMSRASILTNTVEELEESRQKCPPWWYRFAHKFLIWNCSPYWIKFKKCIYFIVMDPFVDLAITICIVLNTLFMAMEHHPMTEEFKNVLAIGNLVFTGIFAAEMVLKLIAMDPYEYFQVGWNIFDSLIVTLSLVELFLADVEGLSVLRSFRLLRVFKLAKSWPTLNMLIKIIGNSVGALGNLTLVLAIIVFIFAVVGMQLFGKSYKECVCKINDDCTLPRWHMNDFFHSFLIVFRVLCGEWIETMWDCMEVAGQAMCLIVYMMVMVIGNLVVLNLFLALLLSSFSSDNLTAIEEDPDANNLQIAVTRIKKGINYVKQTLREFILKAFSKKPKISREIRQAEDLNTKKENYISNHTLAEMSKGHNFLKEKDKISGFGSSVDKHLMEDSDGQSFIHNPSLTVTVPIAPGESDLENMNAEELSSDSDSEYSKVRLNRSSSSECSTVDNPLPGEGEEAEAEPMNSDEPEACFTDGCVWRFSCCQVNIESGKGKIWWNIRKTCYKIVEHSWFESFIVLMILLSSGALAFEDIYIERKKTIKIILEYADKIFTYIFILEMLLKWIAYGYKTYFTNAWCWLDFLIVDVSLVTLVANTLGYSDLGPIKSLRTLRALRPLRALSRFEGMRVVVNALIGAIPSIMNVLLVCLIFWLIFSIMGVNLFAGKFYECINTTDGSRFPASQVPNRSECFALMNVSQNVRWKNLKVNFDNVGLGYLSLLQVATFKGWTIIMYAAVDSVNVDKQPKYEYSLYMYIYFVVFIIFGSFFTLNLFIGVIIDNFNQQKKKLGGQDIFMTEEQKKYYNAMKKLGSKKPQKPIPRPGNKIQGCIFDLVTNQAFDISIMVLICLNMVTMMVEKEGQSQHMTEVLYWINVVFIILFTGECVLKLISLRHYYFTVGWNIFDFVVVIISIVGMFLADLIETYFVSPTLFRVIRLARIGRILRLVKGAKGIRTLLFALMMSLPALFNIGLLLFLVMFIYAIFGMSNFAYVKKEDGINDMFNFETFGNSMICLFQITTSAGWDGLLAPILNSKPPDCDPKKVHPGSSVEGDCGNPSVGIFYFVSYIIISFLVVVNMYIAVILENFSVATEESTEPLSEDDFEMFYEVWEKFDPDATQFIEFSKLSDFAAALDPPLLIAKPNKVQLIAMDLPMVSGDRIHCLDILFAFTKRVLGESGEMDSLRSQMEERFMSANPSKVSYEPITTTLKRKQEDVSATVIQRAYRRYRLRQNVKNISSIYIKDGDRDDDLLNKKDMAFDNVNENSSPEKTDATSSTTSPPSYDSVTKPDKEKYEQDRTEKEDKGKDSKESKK

SMILES | IC50 [nM]
O=S(=O)(Nc1ccncn1)c1cnc(O[C@H]2CC[C@H](c3cccc(C(F)(F)F)n3)C[C@@H]2N2CCCC2)c(Cl)c1 [Example 40, 5-chloro-N-(pyrimidin-4-yl)-6-(((1S,2S,4S)-2-(pyrrolidin-1-yl)-4-(6-(trifluoromethyl)pyridin-2-yl)cyclohexyl)oxy)pyridine-3-sulfonamide] | 3.86
Cc1nc(O[C@H]2CC[C@H](c3cc(F)cc(C(F)(F)F)c3)C[C@@H]2N(C)C)ccc1S(=O)(=O)Nc1ccncn1 [Example 42, 6-(((1S,2S,4S)-2-(Dimethylamino)-4-(3-fluoro-5-(trifluoromethyl)phenyl)cyclohexyl)oxy)-2-methyl-N-(pyrimidin-4-yl)pyridine-3-sulfonamide] | 0.646
Cc1nc(O[C@H]2CC[C@H](c3cc(C(F)(F)F)ccc3F)C[C@@H]2N(C)C)ccc1S(=O)(=O)Nc1ccncn1 [Example 43, 6-(((1S,2S,4S)-2-(Dimethylamino)-4-(2-fluoro-5-(trifluoromethyl)phenyl)cyclohexyl)oxy)-2-methyl-N-(pyrimidin-4-yl)pyridine-3-sulfonamide formate] | 0.687
CN(C)[C@H]1C[C@@H](c2cc(C(F)(F)F)ccc2F)CC[C@@H]1Oc1ccc(S(=O)(=O)Nc2ccncn2)c(Cl)n1 [Example 44, 2-Chloro-6-(((1S,2S,4S)-2-(dimethylamino)-4-(2-fluoro-5-(trifluoromethyl)phenyl)-cyclohexyl)oxy)-N-(pyrimidin-4-yl)pyridine-3-sulfonamide formate] | 1.81
Cc1nc(O[C@H]2CC[C@H](c3ccc(F)c(C(F)(F)F)c3)C[C@@H]2N(C)C)ccc1S(=O)(=O)Nc1ccncn1 [Example 45, 6-(((1S,2S,4S)-2-(Dimethylamino)-4-(4-fluoro-3-(trifluoromethyl)phenyl)cyclohexyl)oxy)-2-methyl-N-(pyrimidin-4-yl)pyridine-3-sulfonamide formate] | 0.473
Cc1nc(O[C@H]2CC[C@H](c3cccc(C(F)(F)F)c3F)C[C@@H]2N(C)C)ccc1S(=O)(=O)Nc1ccncn1 [Example 46, 6-(((1S,2S,4S)-2-(Dimethylamino)-4-(2-fluoro-3-(trifluoromethyl)phenyl)cyclohexyl)oxy)-2-methyl-N-(pyrimidin-4-yl)pyridine-3-sulfonamide formate] | 0.917
CCN(CC)[C@H]1C[C@@H](c2cccc(C(F)(F)F)c2)CC[C@@H]1Oc1ccc(S(=O)(=O)Nc2ccncn2)c(C)n1 [Example 47, 6-(((1S,2S,4S)-2-(Diethylamino)-4-(3-(trifluoromethyl)phenyl)cyclohexyl)oxy)-2-methyl-N-(pyrimidin-4-yl)pyridine-3-sulfonamide] | 1.73
CCN(C)[C@H]1C[C@@H](c2cccc(C(F)(F)F)c2)CC[C@@H]1Oc1ccc(S(=O)(=O)Nc2ccncn2)c(C)n1 [Example 48, 6-(((1S,2S,4S)-2-(Ethyl(methyl)amino)-4-(3-(trifluoromethyl)phenyl)cyclohexyl)oxy)-2-methyl-N-(pyrimidin-4-yl)pyridine-3-sulfonamide] | 0.272
Cc1nc(O[C@H]2CC[C@H](c3cc(Cl)cc(C(F)(F)F)c3)C[C@@H]2N(C)C)ccc1S(=O)(=O)Nc1ccncn1 [Example 49, 6-(((1S,2S,4S)-4-(3-chloro-5-(trifluoromethyl)phenyl)-2-(dimethylamino)cyclohexyl)oxy)-2-methyl-N-(pyrimidin-4-yl)pyridine-3-sulfonamide] | 0.188
Cc1nc(O[C@H]2CC[C@H](c3cccc(OC(F)F)c3)C[C@@H]2N(C)C)ccc1S(=O)(=O)Nc1ccncn1 [Example 52, 6-(((1S,2S,4S)-4-(3-(difluoromethoxy)phenyl)-2-(dimethylamino)cyclohexyl)oxy)-2-methyl-N-(pyrimidin-4-yl)pyridine-3-sulfonamide] | 1.82
Cc1nc(O[C@H]2CC[C@H](c3cccc(C(F)(F)F)c3)C[C@@H]2N(C)C)c(F)cc1S(=O)(=O)Nc1ccncn1 [Example 53, 6-(((1S,2S,4S)-2-(Dimethylamino)-4-(3-(trifluoromethyl)phenyl)cyclohexyl)oxy)-5-fluoro-2-methyl-N-(pyrimidin-4-yl)pyridine-3-sulfonamide formate] | 0.989
Cc1ccc(C(F)(F)F)cc1[C@H]1CC[C@H](Oc2ccc(S(=O)(=O)Nc3ccncn3)c(C)n2)[C@@H](N(C)C)C1 [Example 54, 6-(((1S,2S,4S)-2-(dimethyl-amino)-4-(2-methyl-5-(trifluoromethyl)phenyl)-cyclohexyl)oxy)-2-methyl-N-(pyrimidin-4-yl)pyridine-3-sulfonamide] | 0.404
Cc1nc(O[C@H]2CC[C@H](c3cccc(C(F)(F)F)c3)C[C@@H]2N2CCOCC2)ccc1S(=O)(=O)Nc1ccncn1 [Example 55, 2-methyl-6-(((1S,2S,4S)-2-morpholino-4-(3-(trifluoro-methyl)phenyl)cyclohexyl)-oxy)-N-(pyrimidin-4-yl)pyridine-3-sulfonamide] | 0.527
Cc1ccc([C@H]2CC[C@H](Oc3ccc(S(=O)(=O)Nc4ccncn4)c(C)n3)[C@@H](N(C)C)C2)cc1C(F)(F)F [Example 56, 6-(((1S,2S,4S)-2-(dimethyl-amino)-4-(4-methyl-3-(trifluoromethyl)phenyl)-cyclohexyl)oxy)-2-methyl-N-(pyrimidin-4-yl)pyridine-3-sulfonamide formate] | 0.13
Cc1nc(O[C@H]2CC[C@H](c3cccc(Cl)c3)C[C@@H]2N(C)C)ccc1S(=O)(=O)Nc1ccncn1 [Example 57, 6-(((1S,2S,4S)-4-(3-chloro-phenyl)-2-(dimethylamino)-cyclohexyl)oxy)-2-methyl-N-(pyrimidin-4-yl)pyridine-3-sulfonamide] | 0.919
Cc1cc([C@H]2CC[C@H](Oc3ccc(S(=O)(=O)Nc4ccncn4)c(C)n3)[C@@H](N(C)C)C2)cc(C(F)(F)F)c1 [Example 58, 6-(((1S,2S,4S)-2-(dimethyl-amino)-4-(3-methyl-5-(trifluoromethyl)phenyl)-cyclohexyl)oxy)-2-methyl-N-(pyrimidin-4-yl)pyridine-3-sulfonamide] | 0.351
Cc1nc(O[C@H]2CC[C@H](c3cccc(CC(F)(F)F)c3)C[C@@H]2N(C)C)ccc1S(=O)(=O)Nc1ccncn1 [Example 59, 6-(((1S,2S,4S)-2-(dimethyl-amino)-4-(3-(2,2,2-trifluoro-ethyl)phenyl)-cyclohexyl)-oxy)-2-methyl-N-(pyrimidin-4-yl)pyridine-3-sulfonamide] | 0.942
Cc1nc(O[C@H]2CC[C@H](c3cccc(C(F)(F)F)c3C)C[C@@H]2N(C)C)ccc1S(=O)(=O)Nc1ccncn1 [Example 60, 6-(((1S,2S,4S)-2-(dimethyl-amino)-4-(2-methyl-3-(trifluoromethyl)phenyl)-cyclohexyl)oxy)-2-methyl-N-(pyrimidin-4-yl)pyridine-3-sulfonamide] | 0.909
COc1cc(S(=O)(=O)Nc2ccncn2)cnc1O[C@H]1CC[C@H](c2cccc(C(F)(F)F)c2)C[C@@H]1N(C)C [Example 61, 6-(((1S,2S,4S)-2-(dimethyl-amino)-4-(3-(trifluoromethyl)-phenyl)cyclohexyl)oxy)-5-methoxy-N-(pyrimidin-4-yl)pyridine-3-sulfonamide formate] | 10.7
Cc1nc(O[C@H]2CC[C@H](c3ccc(Cl)c(C(F)(F)F)n3)C[C@@H]2N(C)C)ccc1S(=O)(=O)Nc1ccncn1 [Example 62, 6-(((1S,2S,4S)-4-(5-chloro-6-(trifluoromethyl)pyridin-2-yl)-2-(dimethylamino)-cyclohexyl)oxy)-2-methyl-N-(pyrimidin-4-yl)pyridine-3-sulfonamide] | 1.53
CN(C)[C@H]1C[C@@H](c2cccc(SC(F)(F)F)c2)CC[C@@H]1Oc1ccc(S(=O)(=O)Nc2ccncn2)cn1 [Example 63, 6-(((1S,2S,4S)-2-(dimethy-lamino)-4-(3-((trifluoro-methyl)thio)phenyl)cyclohexyl)oxy)-N-(pyrimidin-4-yl) pyridine-3-sulfonamide] | 1.05
